Laboratory results taken from patent publication US20260159474A1, “Aminoindane Compounds and Compositions and Methods of Their Therapeutic Use” (Solvonis Therapeutics Ireland Holdings Limited, priority 2021, published 2026).
≈ marks a conversion by molar mass, not a printed value.

What was measured:
[1] = Plasma protein binding by equilibrium dialysis, rat plasma; assay type: in vitro ADME; details: for Rat Plasma (Fu %): fraction unbound, 0.5 μM; for fraction unbound at 5 h, 0.5 μM: male, Sprague Dawley, rat, plasma, pH 7.4, read-out: Rat Plasma (Fu %)
Description: Methods: Plasma protein binding and blood tissue binding of test items (0.5 μM) was determined using biological samples from male Sprague Dawley (SD) rats and humans. […] Dexamethasone was used as a control compound for lung tissue binding. Various biological samples were spiked with test compounds according to the methods that follow.
Preparation of plasma or blood samples: An appropriate amount of test compound was dissolved in DMSO to yield a 10 mM solution. Further dilutions, to obtain 50 μM working solutions (WS), were then prepared using 50% acetonitrile in Milli-Q water. These 100×WS were used to spike plasma or blood to obtain a final concentration of 0.5 μM. From this initial spiking solution, control samples (n=3), referred to as T=0, were immediately extracted and used to calculate the recovery of the test item.
An equilibrium dialysis method was performed to determine protein binding in the various biological samples described herein. Materials were prepared and methods were in accordance with the following procedures.
Membranes were prepared for use in the equilibrium dialysis experiment. by soaking in deionized water for at least 60 minutes. After this period, 20% of pure ethanol was added, and the membranes were left in this solution for at least 20 minutes. The membranes were then rinsed in Milli-Q water prior to use.
To initiate the experiment, 150 μL of test item-free buffer (isotonic phosphate buffer for plasma and blood, artificial CSF buffer for brain or HBSS buffer for lung) was dispensed on one half-well of a 96-well dialyzer apparatus (HTDialysis LLC), and 150 μL of spiked matrix (plasma, blood, brain or lung) was loaded on the other half-well. Alternative volumes may be used according to the operating instructions of HTDialysis.
Dialysis buffer was prepared by dissolving Na2HPO4 8.69 g, KH2PO4 1.90 g, and NaCl 4.11 g in […] of MilliQ water, and adjusting the pH to 7.4 with H3PO4. At the end of the equilibration period (device is sealed and incubated under shaking for 5 hours at 37° C.), 50 μL of dialysed matrix will be added to 50 μL of corresponding test item free dialysed buffer, and vice versa for buffer, such that the volume of buffer to matrix will be the same. Samples were extracted by protein precipitation with 300 μL of acetonitrile containing rolipram (for positive ionization mode) or diclofenac (for negative ionization mode) as internal standard and centrifuged for 10 minutes at 2800 rpm. […]
Samples were then injected onto an HPLC MS/MS or UPLC MS/MS system. In order to control the integrity of the membrane after the dialysis process, the presence of protein was assessed in the buffer compartment. […]
Samples were analyzed in a LC-MS/MS system using an analytical method to monitor the compound to internal standard peak area ratios as representative of the compound concentrations. Alternatively, samples were analyzed by RapidFire.
Protein binding in plasma, blood, brain, and lung tissue samples were determined with the following formula: Afu=Buffer/x, wherein “x” may be plasma, blood, brain, or lung, and “Afu” is the apparent fraction unbound, and the other variables refer to the analyte/internal standard ratio determined in their specific compartment (buffer, plasma, blood, brain homogenate, and lung homogenate); Fucr-(1/D)/[(1/Afu)-1+(1/D)], wherein fucr is the fraction unbound corrected, D is the matrix dilution factor (D=1 for plasma, 2 for blood, 3 for brain, 7 for lung). % Binding=(1−fucr)×100 and % Unbound=100—% Bound. […]

human 5-HT2A receptor = target: T1, human 5-HT2A receptor (Homo sapiens, UniProt P28223); assay: Intracellular calcium response (FLIPR) in CHO cells expressing human 5-HT2A receptor; assay type: cell-based; details: n=2; for 5-HT2A agonist mode pEC50: intracellular calcium; for 5-HT2A antagonist mode pIC50: inhibition of serotonin EC80 response
T1 construct: expressed in transfected cells; host or cells: CHO
Description: Methods: Selectivity for the 5-HT2A receptor was assessed by measuring [ICa2+]i in a CHO recombinant cell line stably expressing the human 5-HT2A receptor, using a Fluorometric Imaging Plate Reader (FLIPR TETRA, Molecular Devices).
The day before the experiment, CHO cells were seeded into black-wells clear-bottom 384-well plates at a density of 10,000 cells per well, in F-12K Medium (ThermoFisher #21127) supplemented with 10% dialyzed fetal bovine serum, and grown overnight at 37° C., 5% C02.
On the day of the experiment, the medium was replaced with assay buffer (20 miM HEPES, 145 mM NaCl, 5 mM KCl, 5.5 mM glucose, 1 mM MgCl2, 2 mM CaCl2 and 2.5 mM probenecid, pH 7.4) containing the cytoplasmic Ca2+ indicator Fluo-4 AM at 2 μM and 0.02% Pluronic F-127. After an incubation of 45-60 minutes at 37° C., 0% C02, cells were washed by Microplate Washer (BIOTEK) 384 with assay buffer, and the plate was transferred to the FLIPR TETRA. Then, intracellular fluorescence was measured in real time by FLIPR TETRA (excitation wavelength at 470-495 nm, emission wavelength at 515-575 nm), using a dual addition protocol.
In the first addition, test compounds (11 points of 1:4 serial dilution, 0.5% DMSO final) were added to the cell plate to evaluate their effect on intracellular calcium levels. In the event of a response, the signal was elaborated for the determination of pEC50/EC50 values.

[2] = Solubility in PBS (pH 7.4), HPLC-UV; assay type: physicochemical; details: for solubility at 120 min: PBS pH 7.4, room temperature, 2% DMSO; for Characterization (solubility class): PBS pH 7.4
Description: Stock solutions of therapeutic compounds (20 mM) were prepared in DMSO, on the same day of the experiment when feasible. These solutions were compared with an external standard solution of known concentration via HPLC-UV. To prepare the standard, 4 μL from a 20 mM compound stock solution was added to DMSO in a vial/well, and mixed with shaking at room temperature for 10 minutes. The standard buffer used for the assessment was PBS buffer (pH 7.4), but alternative buffers may also be used, such as biologically relevant Fluids, including Simulated Gastric fluid (SGF) at pH 1.2, Fasted State Simulated Intestinal Fluid (FaSSIF) at pH 6.5, and Fed State Simulated Intestinal Fluid (FeSSIF) at pH 5.0.
An isotonic phosphate buffer (iPBS) was prepared by dissolving a phosphate buffered saline tab (Sigma-Aldrich P4417-50Tab) in 200 mL of deionized water, the final composition of the solution being 10 mM PBS, 2.7 mM kCl, and 137 mM NaCl, yielding a final pH of 7.4 at 25° C. Samples were prepared by dispensing 8 μL from a 20 mM compound stock solution in DMSO in a vial/well in duplicate, adding 392 μL of buffer in each vial/well, and mixed by shaking at room temperature for 120 minutes. The final compound concentration was approximately 400 μM, while the final concentration of DMSO was about 2%. The solutions were then filtered prior to analysis.
Concentrations were determined by comparing UV absorbance of the test solution and of the known standard solution following HPLC separation using a generic fast gradient method employing a DAD detector and UV detection at 230 and 254 nm. Concerning the HPLC Mobile phase, Phase A was a 50 mM ammonium acetate aqueous solution (pH adjusted to 7.4 with ammonia), and Phase B was acetonitrile. For data analysis, chromatographic peaks were automatically integrated, and the parameters were optimized to enable consistent integration of all chromatograms in the entire analytical run. The solubility of each compound was expressed as the ratio of compound amount in the sample test solution to the amount of compound in the standard solution, calculated from the equation “solubility of sample=peak area of sample/peak area of standard×concentration of standard.”

[3] = PBS buffer, aqueous buffer, kinetic from dmso stock

T1 sequence (P28223 whole entry): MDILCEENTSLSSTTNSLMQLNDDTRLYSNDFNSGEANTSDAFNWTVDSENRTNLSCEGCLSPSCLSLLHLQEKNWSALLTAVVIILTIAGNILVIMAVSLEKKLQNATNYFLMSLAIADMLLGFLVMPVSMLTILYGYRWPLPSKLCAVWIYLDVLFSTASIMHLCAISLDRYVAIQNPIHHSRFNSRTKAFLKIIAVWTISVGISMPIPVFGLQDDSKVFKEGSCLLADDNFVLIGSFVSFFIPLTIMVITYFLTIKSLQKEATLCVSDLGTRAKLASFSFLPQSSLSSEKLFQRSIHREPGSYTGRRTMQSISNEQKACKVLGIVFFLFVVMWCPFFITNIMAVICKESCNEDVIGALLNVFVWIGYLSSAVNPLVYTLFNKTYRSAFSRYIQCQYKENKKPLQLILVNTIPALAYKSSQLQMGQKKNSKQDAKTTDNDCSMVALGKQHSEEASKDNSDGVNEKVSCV

Structure (SMILES)	Rat Plasma (Fu %) [1]	5-HT2A agonist mode pEC50 (human 5-HT2A receptor)	5-HT2A antagonist mode pIC50 (human 5-HT2A receptor)	solubility at 120 min [2, 3]	Characterization (solubility class) [2]	solubility at 120 min [2]	fraction unbound at 5 h, 0.5 μM [1]
COC(=O)c1cc2c(cc1OC)CC(N)C2 (centres unmarked) [CMP-401]	Low	–	–	–	–	–	–
COC(=O)c1ccc2c(c1)CC(N)C2 (centres unmarked) [CMP-405, 2-aminoindane-5-methylcarboxylate]	high binding in plasma specimens and Low	comparable to MDMA	comparable to MDMA	392 µM (≈ 75 µg/mL)	High solubility	–	–
CNC(C)Cc1ccc2c(c1)OCO2 (centres unmarked) [MDMA]	>50%	less than 4.3	less than 4.3	–	High solubility	386 µM (≈ 74.6 µg/mL)	–
COc1ccc2c(c1)CC(N)C2 (centres unmarked) [MEAI, 5-methoxy-2-aminoindane]	–	comparable to MDMA	comparable to MDMA	374 µM (≈ 61 µg/mL)	High solubility	–	> 0.5
COc1cc2c(cc1C)CC(N)C2 (centres unmarked) [MMAI, 5-methoxy-6-methyl-2-aminoindane]	–	–	–	–	–	–	> 0.5
